The results in this text go back to patent US10633353B2, “Polymerizable compound, composition, polymer, optically anisotropic body, liquid crystal display element, and organic EL display” (DIC Corporation, priority 2014, dated 2020).

The nature of this data set: Preservation stability of the coating liquid. The settings on record: coating liquid stored for 2 months shielded from light at 0° C.; appearance and GPC. Format: physicochemical. As to the method: The preservation stability of the coating liquid was evaluated on a scale of A to E on the basis of the state of the coating liquid that was stored for 2 months under a condition where the coating liquid was shielded from light at 0° C.
A: No visual change in the appearance of the coating liquid was confirmed. A GPC analysis of the coating liquid confirmed that the change in the composition of the coating liquid was 1% or less.
B: No visual change in the appearance of the coating liquid was confirmed. A GPC analysis of the coating liquid confirmed that the change in the composition of the coating liquid was 2% or less.
C: A visual change in the appearance of the coating liquid was confirmed; a trace amount of insoluble components were confirmed, or a GPC analysis of the coating liquid confirmed that the change in the composition of the coating liquid was 3% or less.
D: A visual change in the appearance of the coating liquid was confirmed; insoluble components were confirmed. The ratio of the weight of the insoluble components to the total solid content was 5% or less.
E: A large amount of insoluble components were visually confirmed. The ratio of the weight of the insoluble components to the total solid content was 5% or more.
For the molecule `C=CC(=O)OCCOCCOCCOc1ccc(OC(=O)C2CCC(COc3ccc(OCC4CCC(C(=O)Oc5ccc(OCCOCCOCCOC(=O)C=C)cc5)CC4)c(/C=N/Nc4nc5ccccc5s4)c3)CC2)cc1` (stereo not shown) [1-cm-105], the Preservation stability result is “A (No visual change in the appearance of the coating liquid was confirmed. A GPC analysis of the coating liquid confirmed that the change in the composition of the coating liquid was 1% or less.)”.

For `C=CC(=O)OCCCCOC1CCC(C(=O)Oc2ccc(OC(=O)C3CCC(OCCCCOC(=O)C=C)CC3)c(/C=N/Nc3nc4ccccc4s3)c2)CC1` (stereo not shown) [1-f-18], the Preservation stability result was “A (No visual change in the appearance of the coating liquid was confirmed. A GPC analysis of the coating liquid confirmed that the change in the composition of the coating liquid was 1% or less.)”.

Regarding `C=CC(=O)OCCCOc1ccc(C(=O)OCCc2ccc(OC(=O)c3ccc(OCCCOC(=O)C=C)cc3)c(/C=N/Nc3nc4cc(Cl)ccc4s3)c2)cc1` [1-c-24], the Preservation stability result is “B (No visual change in the appearance of the coating liquid was confirmed. A GPC analysis of the coating liquid confirmed that the change in the composition of the coating liquid was 2% or less.)”.

As for `C=CC(=O)OCCCCOc1ccc(C(=O)OCCc2ccc(OC(=O)c3ccc(OCCCCOC(=O)C=C)cc3)c(/C=N/Nc3nc4ccccc4s3)c2)cc1` [1-c-3], the Preservation stability entry was “A (No visual change in the appearance of the coating liquid was confirmed. A GPC analysis of the coating liquid confirmed that the change in the composition of the coating liquid was 1% or less.)”.

For the molecule `C=CC(=O)OCCCCOC(=O)C1CCC(C(=O)OC2CCC(C(=O)Oc3ccc(OC(=O)C4CCC(OC(=O)C5CCC(C(=O)OCCCCOC(=O)C=C)CC5)CC4)c(/C=N/N(CCCC)c4nc5ccccc5s4)c3)CC2)CC1` (stereo not shown) [1-f-99], the Preservation stability result is “A (No visual change in the appearance of the coating liquid was confirmed. A GPC analysis of the coating liquid confirmed that the change in the composition of the coating liquid was 1% or less.)”.

In the case of `C=CC(=O)OCCCCCCOc1ccc(C(=O)OCCc2ccc(OC(=O)c3ccc(OCCCCCCOC(=O)C=C)cc3)c(/C=N/Nc3nc4ccccc4s3)c2)cc1` [1-c-1], the Preservation stability entry is given as “A (No visual change in the appearance of the coating liquid was confirmed. A GPC analysis of the coating liquid confirmed that the change in the composition of the coating liquid was 1% or less.)”.

As for `C=CC(=O)OCCCCCCOc1ccc(OC(=O)C2CCC(COc3ccc(OCC4CCC(C(=O)Oc5ccc(OCCCCCCOC(=O)C=C)cc5)CC4)c(/C=N/N(CCOCCOCCOC(=O)C=C)c4nc5ccccc5s4)c3)CC2)cc1` (stereo not shown) [1-cmn-94], the Preservation stability entry is recorded as “A (No visual change in the appearance of the coating liquid was confirmed. A GPC analysis of the coating liquid confirmed that the change in the composition of the coating liquid was 1% or less.)”.

Consider `C=CC(=O)OCCOCCOCCOc1ccc(OC(=O)C2CCC(COc3ccc(OCC4CCC(C(=O)Oc5ccc(OCCOCCOCCOC(=O)C=C)cc5)CC4)c(/C=N/N(CCCCCC)c4nc5ccccc5s4)c3)CC2)cc1` (stereo not shown) [1-cmn-90], for which the Preservation stability entry is on record as “A (No visual change in the appearance of the coating liquid was confirmed. A GPC analysis of the coating liquid confirmed that the change in the composition of the coating liquid was 1% or less.)”.

As for `C=CC(=O)OCCCOc1ccc(C(=O)OCCc2ccc(OC(=O)c3ccc(OCCCOC(=O)C=C)cc3)c(/C=N/Nc3nc4ccccc4s3)c2)cc1` [1-c-2], the Preservation stability result is recorded as “A (No visual change in the appearance of the coating liquid was confirmed. A GPC analysis of the coating liquid confirmed that the change in the composition of the coating liquid was 1% or less.)”.

Take `C=CC(=O)OCCCCCOc1ccc(C(=O)OCCc2ccc(CCOC(=O)c3ccc(OCCCCCOC(=O)C=C)cc3)c(/C=N/Nc3nc4ccccc4s3)c2)cc1` [1-c-11]: the Preservation stability entry is given as “A (No visual change in the appearance of the coating liquid was confirmed. A GPC analysis of the coating liquid confirmed that the change in the composition of the coating liquid was 1% or less.)”.
